This passage reports remaining activity results from PMC8286840, “Identifying SARS-CoV-2 antiviral compounds by screening for small molecule inhibitors of Nsp3 papain-like protease” (Biochemical Journal, 2021).

Each structure is given as a SMILES string. Where a name gives a salt, the structure may show the parent alone. Read-outs that look alike come from different tables or passages of the source.

The target in assay [1] is T1, SARS-CoV-2 PLpro (nsp3 1564–1878) (Severe acute respiratory syndrome coronavirus 2, UniProt P0DTD1). The experiment in a line: biochemical. Also on record: FRET-quenched peptide (Pro3) cleavage by PLpro, 10 min pre-incubation, slope over 20 min, normalised to no-compound control. Conditions: high concentration screen, read-out: % of control remaining.
The target in assay [2] is T1, SARS-CoV-2 PLpro (nsp3 1564–1878). Briefly: biochemical. The arrangement: FRET-quenched peptide (Pro3) cleavage by PLpro, 10 min pre-incubation, slope over 20 min, normalised to no-compound control. Conditions: low concentration screen, read-out: % of control remaining.

For `O=C(O)/C=C1\CCCc2ccccc2C1O` (stereo not drawn) [NCS-382], the remaining activity at 3.75 µM in assay [1] (Well no.=903) amounted to 99.9%. For the same molecule, the remaining activity at 1.25 µM in assay [2] (Well no.=903) was 101%.
Consider `CC(C)CCn1c(CN2CCN(C(=O)C3CC3)CC2)nc2c1c(=O)n(C)c(=O)n2C` [NCT-501], for which the remaining activity at 3.75 µM in assay [1] (Well no.=8532) worked out at 98.9%. Further, the remaining activity at 1.25 µM in assay [2] (Well no.=8532) amounted to 105%.
As to `Cc1cc(C)nc(NC(=S)N2CCN(Cc3ccc(C(F)(F)F)cc3)CC2)c1` [NCT-503], the remaining activity at 3.75 µM in assay [1] (Well no.=8538) amounted to 93.8%. The remaining activity at 1.25 µM in assay [2] (Well no.=8538) is 96.7%.
Consider `CC(=O)Oc1ccccc1C(=O)Oc1ccc(CO[N+](=O)[O-])cc1` [NCX 4040], for which the remaining activity at 3.75 µM in assay [1] (Well no.=6087) was 99.2%. Besides, the remaining activity at 1.25 µM in assay [2] (Well no.=6087) was 99.1%.
Take `O=C(Nc1cc(C(=O)Nc2ccc(S(=O)(=O)O)cc2S(=O)(=O)O)cc(C(=O)Nc2ccc(S(=O)(=O)O)cc2S(=O)(=O)O)c1)Nc1cc(C(=O)Nc2ccc(S(=O)(=O)O)cc2S(=O)(=O)O)cc(C(=O)Nc2ccc(S(=O)(=O)O)cc2S(=O)(=O)O)c1` [NF449 octasodium salt]: the remaining activity at 3.75 µM in assay [1] (Well no.=1095) turned out to be 98.3%. Further, in assay [2] (Well no.=1095), the remaining activity at 1.25 µM came out at 97.6%.
As for `O=C(Nc1cccc(C(=O)Nc2ccc(S(=O)(=O)O)c3cc(S(=O)(=O)O)cc(S(=O)(=O)O)c23)c1)Nc1cccc(C(=O)Nc2ccc(S(=O)(=O)O)c3cc(S(=O)(=O)O)cc(S(=O)(=O)O)c23)c1` [NF 023], the remaining activity at 3.75 µM in assay [1] (Well no.=813) was determined as 89.2%. In assay [2] (Well no.=813), the remaining activity at 1.25 µM stood at 88.1%.
`Nc1ccc2ncnc(NCCc3ccc(Oc4ccccc4)cc3)c2c1` [NF-kB Activation Inhibitor]: in assay [1] (Well no.=2566), the remaining activity at 3.75 µM worked out at 98.5%. Besides, the remaining activity at 1.25 µM in assay [2] (Well no.=2566) was 97.6%.
Consider `NC(=NCCC[C@H](N)C(=O)O)NO` [NG-Hydroxy-L-arginine acetate], for which, in assay [1] (Well no.=660), the remaining activity at 3.75 µM is 96.5%. Further, in assay [2] (Well no.=660), the remaining activity at 1.25 µM came out at 96.5%.
Consider `CNC(=N)NCCC[C@H](N)C(=O)O` [NG-Monomethyl-L-arginine acetate], for which the remaining activity at 3.75 µM in assay [1] (Well no.=886) is 103%. Besides, in assay [2] (Well no.=886), the remaining activity at 1.25 µM amounted to 102%.
For the molecule `COC(=O)[C@@H](N)CCCNC(=N)N[N+](=O)[O-]` [NG-Nitro-L-arginine methyl ester hydrochloride], in assay [1] (Well no.=1001), the remaining activity at 3.75 µM came to 98.3%. Further, the remaining activity at 1.25 µM in assay [2] (Well no.=1001) is 99.6%.
In the case of `N=C(NCCC[C@H](N)C(=O)O)N[N+](=O)[O-]` [NG-Nitro-L-arginine], in assay [1] (Well no.=857), the remaining activity at 3.75 µM came out at 101%. Moreover, the remaining activity at 1.25 µM in assay [2] (Well no.=857) is 99.8%.
As for `O=C(NCCCCN1CCN(c2cccc(Cl)c2Cl)CC1)c1ccc2c(c1)Cc1ccccc1-2` [NGB 2904 hydrochloride], the remaining activity at 3.75 µM in assay [1] (Well no.=5407) stood at 101%. Also, the remaining activity at 1.25 µM in assay [2] (Well no.=5407) worked out at 97.8%.
In the case of `Cc1cnc(NC(=O)c2cc(S(=O)(=O)N(C)C)ccc2N2CCCC2)s1` [NGI-1], the remaining activity at 3.75 µM in assay [1] (Well no.=7684) came out at 103%. The remaining activity at 1.25 µM in assay [2] (Well no.=7684) worked out at 103%.
As for `CCCCCCCCCCCCCCCCn1cc[n+](Cc2ccccc2)c1C` [NH 125 - 1-Hexadecyl-2-methyl-3-(phenylmethyl)-1H-imidazolium iodide], the remaining activity at 3.75 µM in assay [1] (Well no.=2336) turned out to be 97%. Also, in assay [2] (Well no.=2336), the remaining activity at 1.25 µM is 97.5%.
`O=C(N[C@H]1CCN(C(=O)c2cc(C(F)(F)F)cc(C(F)(F)F)c2)[C@H](Cc2ccc(Cl)cc2)C1)c1ccnc2ccccc12` [NKP608]: the remaining activity at 3.75 µM in assay [1] (Well no.=8427) was 92.6%. Further, the remaining activity at 1.25 µM in assay [2] (Well no.=8427) worked out at 93.4%.
As for `C[C@@]1(O)[C@H](O)[C@@H](CO)O[C@H]1n1ccc(N)nc1=O` [NM107], the remaining activity at 3.75 µM in assay [1] (Well no.=8897) is 100%. Besides, the remaining activity at 1.25 µM in assay [2] (Well no.=8897) came to 99.5%.
Turning to `CN1CCC(NC(=O)c2cc(-c3c(O)cc(O)cc3Oc3ccc([N+](=O)[O-])cc3)on2)CC1` [NMS-E973], in assay [1] (Well no.=8620), the remaining activity at 3.75 µM worked out at 89.2%. Further, in assay [2] (Well no.=8620), the remaining activity at 1.25 µM amounted to 94.8%.
On to `CC1(NC2=NS(=O)(=O)c3sc(Cl)cc3N2)CC1` [NN414], for which, in assay [1] (Well no.=5436), the remaining activity at 3.75 µM is 104%. The remaining activity at 1.25 µM in assay [2] (Well no.=5436) turned out to be 103%.
With `O=C(O)C1=CCCN(CCON=C(c2ccccc2)c2ccccc2)C1` [NO-711 hydrochloride], in assay [1] (Well no.=1149), the remaining activity at 3.75 µM was 88.4%. Besides, in assay [2] (Well no.=1149), the remaining activity at 1.25 µM was 92.4%.
Consider `CCCCCCCCCCCCC(=O)N1CCCCC1CNC(=O)[C@@H](N)CCCCN` (stereo partly drawn) [NPC-15437 dihydrochloride], for which the remaining activity at 3.75 µM in assay [1] (Well no.=1132) turned out to be 95.6%. The remaining activity at 1.25 µM in assay [2] (Well no.=1132) amounted to 94%.
With `CC(C)(Cc1ccc2ccccc2c1)NC[C@@H](O)COc1cccc(Cl)c1C#N` [NPS-2143 (hydrochloride)], the remaining activity at 3.75 µM in assay [1] (Well no.=7051) turned out to be 105%. The remaining activity at 1.25 µM in assay [2] (Well no.=7051) was 107%.
With `CC(C)(Cc1ccc2ccccc2c1)NC[C@@H](O)COc1cccc(Cl)c1C#N` [NPS-2143], in assay [1] (Well no.=7036), the remaining activity at 3.75 µM is 93.8%. Also, in assay [2] (Well no.=7036), the remaining activity at 1.25 µM was determined as 96.4%.
Turning to `CC(=O)c1ccc(NC2=C(Cl)C(=O)c3ccccc3C2=O)cc1` [NQ301], the remaining activity at 3.75 µM in assay [1] (Well no.=5652) is 82.1%. Moreover, the remaining activity at 1.25 µM in assay [2] (Well no.=5652) turned out to be 93.7%.
Regarding `CCOC(=O)c1c2c3c(cccc3[nH]c1=O)C(=O)c1ccccc1-2` [NQDI-1], the remaining activity at 3.75 µM in assay [1] (Well no.=5480) worked out at 96.7%. For the same molecule, the remaining activity at 1.25 µM in assay [2] (Well no.=5480) was 90.1%.
With `CCCCN1CCC(n2c(=O)[nH]c3ccccc32)CC1` [NS 521 oxalate], the remaining activity at 3.75 µM in assay [1] (Well no.=1003) was 105%. In addition, the remaining activity at 1.25 µM in assay [2] (Well no.=1003) was 99.3%.
For `O=c1onc2n1-c1cc(Br)ccc1OC2` [NS 2028], the remaining activity at 3.75 µM in assay [1] (Well no.=990) was 99.6%. Also, in assay [2] (Well no.=990), the remaining activity at 1.25 µM came to 99.8%.
In the case of `CC(C)N(CCCCOCC(=O)NS(C)(=O)=O)c1cnc(-c2ccccc2)c(-c2ccccc2)n1` [NS-304], the remaining activity at 3.75 µM in assay [1] (Well no.=6795) is 94.6%. For the same molecule, in assay [2] (Well no.=6795), the remaining activity at 1.25 µM is 97.6%.
Take `O=c1[nH]c2cc(C(F)(F)F)ccc2n1-c1cc(C(F)(F)F)ccc1O` [NS-1619]: the remaining activity at 3.75 µM in assay [1] (Well no.=846) is 102%. In assay [2] (Well no.=846), the remaining activity at 1.25 µM was determined as 104%.
Turning to `CN1CCN(C(=O)/C=C/c2ccc([N+](=O)[O-])o2)CC1` [NSC59984], the remaining activity at 3.75 µM in assay [1] (Well no.=6644) came to 106%. The remaining activity at 1.25 µM in assay [2] (Well no.=6644) is 105%.
As to `C/C(=N\NC(=S)N1CCC1)c1ccccn1` [NSC319726], the remaining activity at 3.75 µM in assay [1] (Well no.=6736) amounted to 102%. Moreover, the remaining activity at 1.25 µM in assay [2] (Well no.=6736) stood at 102%.
In the case of `Cc1ccc2nc(CN(CCN(Cc3nc4ccc(C)cc4[nH]3)Cc3nc4ccc(C)cc4[nH]3)Cc3nc4ccc(C)cc4[nH]3)[nH]c2c1` [NSC348884], the remaining activity at 3.75 µM in assay [1] (Well no.=6442) was 98.1%. Further, the remaining activity at 1.25 µM in assay [2] (Well no.=6442) was found to be 105%.
As to `CC(C)(N)C(=O)O` [NSC 16590], the remaining activity at 3.75 µM in assay [1] (Well no.=7781) was 108%. In addition, the remaining activity at 1.25 µM in assay [2] (Well no.=7781) stood at 103%.
For `CCN(CC)CCCC(C)Nc1nc(C)cc(Nc2ccc3nc(C)cc(N)c3c2)n1` (stereo not drawn) [NSC 23766], the remaining activity at 3.75 µM in assay [1] (Well no.=4798) was found to be 101%. In assay [2] (Well no.=4798), the remaining activity at 1.25 µM was 103%.
